{"source": "patent US20220143183A1", "about": "“PHOTOSWITCHABLE PROTACS AND SYNTHESIS AND USES THEREOF” (New York University, priority 2019, published 2022)", "assay_type_in_all_cases": "cell-based", "key": {"[1]": {"molecular_target": "T1, BRD2 (Homo sapiens, UniProt P25440)", "T1 construct": "endogenous in cells; host or cells: RS4;11 (ATCC CRL-1873)", "T1 sequence (P25440 whole entry)": "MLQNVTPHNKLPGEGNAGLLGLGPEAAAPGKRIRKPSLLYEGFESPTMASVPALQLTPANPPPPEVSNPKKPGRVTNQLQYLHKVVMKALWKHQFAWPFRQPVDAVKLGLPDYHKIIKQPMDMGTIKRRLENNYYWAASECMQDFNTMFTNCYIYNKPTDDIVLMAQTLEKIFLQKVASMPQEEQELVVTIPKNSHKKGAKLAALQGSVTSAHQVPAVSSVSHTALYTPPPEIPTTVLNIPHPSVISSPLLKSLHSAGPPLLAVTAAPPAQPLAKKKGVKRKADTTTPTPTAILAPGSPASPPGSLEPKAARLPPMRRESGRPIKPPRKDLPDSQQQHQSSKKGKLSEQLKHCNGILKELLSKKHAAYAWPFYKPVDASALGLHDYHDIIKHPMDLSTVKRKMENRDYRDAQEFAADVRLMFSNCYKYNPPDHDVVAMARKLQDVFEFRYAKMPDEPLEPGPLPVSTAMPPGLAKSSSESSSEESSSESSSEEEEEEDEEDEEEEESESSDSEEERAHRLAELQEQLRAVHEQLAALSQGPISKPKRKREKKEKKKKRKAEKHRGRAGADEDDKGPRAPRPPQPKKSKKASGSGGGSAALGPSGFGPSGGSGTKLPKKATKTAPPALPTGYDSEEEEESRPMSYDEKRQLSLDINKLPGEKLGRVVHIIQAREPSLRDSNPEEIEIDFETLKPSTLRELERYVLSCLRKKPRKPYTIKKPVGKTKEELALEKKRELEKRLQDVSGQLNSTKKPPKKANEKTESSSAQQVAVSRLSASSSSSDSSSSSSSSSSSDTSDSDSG", "assay": "Western blot of BRD2 levels in RS4;11 cells", "experimental": "(§1) Next, the light dependence of targeted protein degradation was analyzed in RS4;11 cells by western blot analysis of the BET proteins BRD2-4 (FIG. 5). To this end, cells were treated with increasing concentrations of our lead compound, PHOTAC-I-3, for 4 h and pulse-irradiated with 390 nm light (100 ms every 10 s). […] The cereblon-dependent degradation was confirmed by a competition experiment (FIG. 5E), and further validated by siRNA knockdown of cereblon (FIG. 13).\nOne of the principal advantages of photoswitches over caged compounds is their reversibility.\n(§2) Cells were incubated with different concentrations of selected compounds. They were placed in a light-proof box and preirradiated for 1 min at 390 nm followed by 100 ms pulses every 10 s or were kept in the dark for 4 h.\n(§3) Cultured cells were collected by centrifugation and washed twice with cold PBS. The supernatant was removed and each cell pellet was lysed in 100 μL NP40-Cell-Lysis Buffer+0.1% SDS+1 mM PMSF+ protease inhibitor cocktail (Sigma Aldrich) for 30 min on ice, with vortexing at 10-minute intervals. Afterwards, cells were centrifuged at 13.000 rpm for 10 min at 4° C. Samples were stored on ice and the supernatant was collected for protein concentration determination using a Thermofisher Scientific Pierce™ Coomassie Plus (Bradford) Assay Kit.\nThe samples were diluted each with 5 μL Laemmli sample buffer Invitrogen (NuPAGE LDS Sample Buffer 4×) and 1 μL DTT, heated at 95° C. for 5 min. Respectively 20 μL of each sample was loaded in a lane of a Bio-Rad Mini-PROTEAN TGX precast Gel, 4-20%, used with tris-glycine SDS Running buffer. The gel ran 5 min at 50 V, then 35 min at 140 V. Next step was the electrotransfer to a polyvinylidene difluoride (PVDF) membrane which was carried out using an iBlot™ 2 Dry Blotting System set to the standard program. After the transfer, the membrane was washed with 25 mL TB ST for 5 min and subsequent incubated in 25 mL of blocking buffer (1×TBST+5% nonfat dry milk, Blotto, Santa Cruz Biotechnology) for 1 h at room temperature. […]"}, "[2]": {"molecular_target": "T2, BRD4 (Homo sapiens, UniProt O60885)", "assay": "Immunoblot of BRD4 degradation in MB-MDA-468 cells", "set-up": "Immunoblot analysis after treatment of MB-MDA-231 cells with PHOTAC-I-3 for 18 h at different concentrations; endogenous in cells; host or cells: MB-MDA-231 (A10) and MB-MDA-468 (A11) (so in the source)", "conditions": "18 h, 390 nm pulses vs dark", "experimental": "(§4) FIG. 10 depicts an immunoblot analysis of PHOTAC-I-3 A) Immunoblot analysis after treatment of MB-MDA-231 cells with PHOTAC-I-3 for 18 h at different concentrations. Cells were either irradiated with 100 ms pulses of 390 nm light every 10 s (left) or kept the dark (right). B) Immunoblot analysis after treatment of MB-MDA-468 cells with PHOTAC-I-3 for 18 h at different concentrations. Cells were either irradiated with 100 ms pulses of 390 nm light every 10 s (left) or kept the dark (right). (MWM, molecular weight marker). C) Immunoblot of BRD4 degradation in RS4;11 cells, promoted by PHOTAC-I-3 (300 nM) after 1 minute of irradiation (100 ms every 10 s), highlighting sustained degradation at the applied dosage.\n(§5) Photoactivatable degraders and inhibitors of BRD4, c-MYC levels were also affected."}, "[3]": {"molecular_target": "T2, BRD4", "assay": "Western blot of BRD4 levels in RS4;11 cells", "set-up": "endogenous in cells; host or cells: RS4;11 (ATCC CRL-1873)", "experimental": "as §1\nWestern Immunoblot Analysis. Rabbit monoclonal Antibodies for BRD4 (#13440), β-Actin (#4970) c-Myc (#5605) and Anti-rabbit IgG, HRP-linked Antibody (#7074) were purchased from Cell Signalling Technologies.\nas §2, §3\nThe samples were diluted each with 5 μL Laemmli sample buffer Invitrogen (NuPAGE LDS Sample Buffer 4×) and 1 μL DTT, heated at 95° C. for 5 min. Respectively 20 μL of each sample was loaded in a lane of a Bio-Rad Mini-PROTEAN TGX precast Gel, 4-20%, used with tris-glycine SDS Running buffer. The gel ran 5 min at 50 V, then 35 min at 140 V. Next step was the electrotransfer to a polyvinylidene difluoride (PVDF) membrane which was carried out using an iBlot™ 2 Dry Blotting System set to the standard program. After the transfer, the membrane was washed with 25 mL TB ST for 5 min and subsequent incubated in 25 mL of blocking buffer (1×TBST+5% nonfat dry milk, Blotto, Santa Cruz Biotechnology) for 1 h at room temperature. The membrane was washed three times for 5 min each with 15 mL of TBST and incubated in a 10 mL antibody dilution buffer with gentle agitation at 4° C. overnight (Actin: 1:1000; c-MYC: 1:1000; BRD4: 1:1000). The next day, the membrane was washed again three times for 5 min each with 15 mL TBST, followed by incubation with anti-rabbit, HRP-linked antibody (1:2000) in 10 mL blocking buffer with gentle agitation for 1 h at room temperature. Afterwards, the membrane was washed three times for 5 min each with 15 mL TBST and then incubated in 10 mL of Clarity Max Western ECL Substrate solution for 5 min. Chemoluminescence imaging was performed on a Bio-Rad ChemiDoc™ Imaging System.\nLED illumination. For illumination of the cells we used the cell disco system as previously described in the literature^[25]. 390 nm 5 mm LEDs were purchased from Roithner Lasertechnik. Cells were preirradiated for 1 min at 390 nm, followed by 100 ms pulses every 10 s in 96- or 6-well plates."}, "[4]": {"molecular_target": "T2, BRD4", "assay": "Immunoblot of BRD4 degradation in MB-MDA-231 cells", "set-up": "Immunoblot analysis after treatment of MB-MDA-231 cells with PHOTAC-I-3 for 18 h at different concentrations; endogenous in cells; host or cells: MB-MDA-231 (A10) and MB-MDA-468 (A11) (so in the source)", "conditions": "18 h, 390 nm pulses vs dark", "experimental": "as §4, §5"}}}
{"smiles": "COc1cc(/N=N/c2cccc3c2CN(C2CCC(=O)NC2=O)C3=O)cc(OC)c1OCC(=O)NCCCCNC(=O)C[C@@H]1N=C(c2ccc(Cl)cc2)c2c(sc(C)c2C)-n2c(C)nnc21", "note": "(stereo partly drawn) [PHOTAC-I-3, 2-((S)-4-(4-chlorophenyl)-2,3,9-trimethyl-6H-thieno[3,2-f][1,2,4]triazolo[4,3-a][1,4]diazepin-6-yl)-N-(4-(2-(4-((E)-(2-(2,6-dioxopiperidin-3-yl)-1-oxoisoindolin-4-yl)diazenyl)-2,6-dimethoxyphenoxy)acetamido)butyl)acetamide]", "values": [{"measurement": "exposure time after which BRD2 is largely absent", "setting": "[1]; 1 μM, 390 nm pulse irradiation", "result": 1.5, "unit": "h"}, {"measurement": "cellular BRD2 levels in rescue experiment", "setting": "[1]; 1 min 390 nm, then pulse irradiated with 525 nm", "result": "initially decreased but, subsequently, recovered faster than when left in the dark"}, {"measurement": "BRD2 degradation", "setting": "[1]; 4 h, 390 nm, compared with BRD3 and BRD4", "result": "degraded to a lesser extent and within a narrower concentration range"}, {"measurement": "BRD4 degradation", "setting": "[2]", "result": "light-dependent degradation of BRD4"}, {"measurement": "time dependence of BRD4 degradation", "setting": "[3]; 1 μM, 390 nm pulse irradiation, compared with BRD2 and BRD3", "result": "degraded more slowly"}, {"measurement": "BRD4 degradation at high concentration (hook effect)", "setting": "[3]; 10 μM, 4 h, 390 nm", "result": "less degradation"}, {"measurement": "BRD4 levels", "setting": "[3]; 4 h, 390 nm pulses (100 ms every 10 s)", "result": "pronounced decrease of BRD4 levels"}, {"measurement": "BRD4 degradation in the dark after brief activation", "setting": "[3]; activation for 1 min, 300 nM", "result": "Persistent degradation of BRD4"}, {"measurement": "BRD4 degradation", "setting": "[4]", "result": "light-dependent degradation of BRD4"}]}
